Experimental findings from ChEMBL document CHEMBL3621135 (ACS Med Chem Lett, 2015) are described below.

One series is filed under the species Homo sapiens. Put plainly: Inhibition of sodium channel (unknown origin) at 10 uM at 1 and 4 Hz stimulation by patch clamp assay.
Series [1] is described as follows: Half in mouse liver microsomes. Format: ADME. On the technique in general: Microsomes from liver hold many membrane-bound enzymes, among them those of drug oxidation.
Series [2] is described as follows: Oral bioavailability in cynomolgus monkey at 1 mg/kg. The note with it: in vivo. Format: ADME, organism-based, Macaca fascicularis.
The next series addresses Phosphodiesterase 4 (Homo sapiens, UniProt P27815+Q08499+Q07343+Q08493). Put plainly: Inhibition of PDE4 (unknown origin). Format: protein assay.
A short description of series [3]: Half life in cynomolgus monkey at 1 mg/kg, iv and 1 mg/kg, po. It counts as ADME, organism-based, Macaca fascicularis. The note with it: in vivo.
A short description of series [4]: Half in rat liver microsomes. It counts as ADME.
Series [5] can be described thus: Toxicity in micronucleus (unknown origin) assessed as induction of clastogenesis by micronucleus assay.
Series [6] relates to Mus musculus. The experiment in a line: AUC (0 to 8 hrs) in mouse pharamcodynamic model at 10 mg/kg, po. It counts as ADME, organism-based. More on the design: dose 10 mg/kg, time < 8 hr, route oral. The note with it: in vivo.
Series [7] concerns the target T1, Tyrosine-protein kinase JAK3 (Homo sapiens, UniProt P52333).
T1 sequence (P52333 whole entry): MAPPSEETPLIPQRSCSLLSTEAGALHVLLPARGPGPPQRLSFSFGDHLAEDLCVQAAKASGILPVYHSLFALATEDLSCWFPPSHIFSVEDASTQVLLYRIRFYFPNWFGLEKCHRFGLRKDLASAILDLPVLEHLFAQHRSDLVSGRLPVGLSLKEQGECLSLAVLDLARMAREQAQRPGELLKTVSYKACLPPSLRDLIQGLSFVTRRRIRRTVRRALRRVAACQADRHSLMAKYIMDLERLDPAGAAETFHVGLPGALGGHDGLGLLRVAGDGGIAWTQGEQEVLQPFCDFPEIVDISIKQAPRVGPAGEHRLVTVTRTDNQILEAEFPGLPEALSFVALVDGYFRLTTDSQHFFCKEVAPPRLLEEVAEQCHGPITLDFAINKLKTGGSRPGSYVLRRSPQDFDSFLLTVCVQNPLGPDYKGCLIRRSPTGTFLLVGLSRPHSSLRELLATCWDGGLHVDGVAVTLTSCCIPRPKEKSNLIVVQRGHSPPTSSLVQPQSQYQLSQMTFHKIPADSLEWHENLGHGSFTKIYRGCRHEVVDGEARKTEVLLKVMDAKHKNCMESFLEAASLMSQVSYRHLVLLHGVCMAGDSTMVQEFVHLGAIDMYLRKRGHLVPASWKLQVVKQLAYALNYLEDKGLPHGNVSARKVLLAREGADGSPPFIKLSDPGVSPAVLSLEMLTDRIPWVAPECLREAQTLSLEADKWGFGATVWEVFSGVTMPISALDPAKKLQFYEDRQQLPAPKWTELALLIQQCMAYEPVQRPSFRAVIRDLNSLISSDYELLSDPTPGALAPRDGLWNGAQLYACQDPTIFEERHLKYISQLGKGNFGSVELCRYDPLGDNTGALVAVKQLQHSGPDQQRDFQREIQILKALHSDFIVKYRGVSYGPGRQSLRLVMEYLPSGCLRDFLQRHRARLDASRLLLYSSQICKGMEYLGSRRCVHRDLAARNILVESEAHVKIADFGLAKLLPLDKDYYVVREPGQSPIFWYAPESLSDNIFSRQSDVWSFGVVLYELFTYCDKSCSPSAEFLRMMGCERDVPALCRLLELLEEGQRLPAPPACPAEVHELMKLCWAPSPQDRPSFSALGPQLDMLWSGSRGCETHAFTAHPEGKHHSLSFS
The experiment in a line: Binding affinity to JAK3 (unknown origin) assessed as dissociation constant.

Series [8] addresses Tyrosine-protein kinase JAK2 (Homo sapiens, UniProt O60674). Put plainly: Inhibition of JAK2 in human SET2 cells assessed as reduction in STAT5 phosphorylation incubated for 2 hrs by Western blot method. It counts as cell-based.
Series [9] has as its target T1, Tyrosine-protein kinase JAK3. The experiment in a line: Inhibition of recombinant JAK3 (unknown origin) using 5-FAM-KKKKEEIYFFFG-OH substrate and ATP incubated for 180 mins by […] method.
Series [10] is described as follows: Antiproliferative activity against human SET2 cells incubated for 72 hrs by [3H] thymidine incorporation assay. It counts as functional, cell-based. The note with it: SET-2.
The subject of series [11] is BaF3. Put plainly: Antiproliferative activity against mouse BAF3 cells expressing JAK2 V617F mutant incubated for 72 hrs by [3H] thymidine incorporation assay. It counts as functional, cell-based. (In general: Dividing cells build labelled thymidine or BrdU into new DNA.)
For a further series, the target named is hERG (Homo sapiens, UniProt Q12809). Put plainly: Inhibition of human ERG at 30 uM by patch clamp assay.
hERG, sequence (Q12809 whole entry): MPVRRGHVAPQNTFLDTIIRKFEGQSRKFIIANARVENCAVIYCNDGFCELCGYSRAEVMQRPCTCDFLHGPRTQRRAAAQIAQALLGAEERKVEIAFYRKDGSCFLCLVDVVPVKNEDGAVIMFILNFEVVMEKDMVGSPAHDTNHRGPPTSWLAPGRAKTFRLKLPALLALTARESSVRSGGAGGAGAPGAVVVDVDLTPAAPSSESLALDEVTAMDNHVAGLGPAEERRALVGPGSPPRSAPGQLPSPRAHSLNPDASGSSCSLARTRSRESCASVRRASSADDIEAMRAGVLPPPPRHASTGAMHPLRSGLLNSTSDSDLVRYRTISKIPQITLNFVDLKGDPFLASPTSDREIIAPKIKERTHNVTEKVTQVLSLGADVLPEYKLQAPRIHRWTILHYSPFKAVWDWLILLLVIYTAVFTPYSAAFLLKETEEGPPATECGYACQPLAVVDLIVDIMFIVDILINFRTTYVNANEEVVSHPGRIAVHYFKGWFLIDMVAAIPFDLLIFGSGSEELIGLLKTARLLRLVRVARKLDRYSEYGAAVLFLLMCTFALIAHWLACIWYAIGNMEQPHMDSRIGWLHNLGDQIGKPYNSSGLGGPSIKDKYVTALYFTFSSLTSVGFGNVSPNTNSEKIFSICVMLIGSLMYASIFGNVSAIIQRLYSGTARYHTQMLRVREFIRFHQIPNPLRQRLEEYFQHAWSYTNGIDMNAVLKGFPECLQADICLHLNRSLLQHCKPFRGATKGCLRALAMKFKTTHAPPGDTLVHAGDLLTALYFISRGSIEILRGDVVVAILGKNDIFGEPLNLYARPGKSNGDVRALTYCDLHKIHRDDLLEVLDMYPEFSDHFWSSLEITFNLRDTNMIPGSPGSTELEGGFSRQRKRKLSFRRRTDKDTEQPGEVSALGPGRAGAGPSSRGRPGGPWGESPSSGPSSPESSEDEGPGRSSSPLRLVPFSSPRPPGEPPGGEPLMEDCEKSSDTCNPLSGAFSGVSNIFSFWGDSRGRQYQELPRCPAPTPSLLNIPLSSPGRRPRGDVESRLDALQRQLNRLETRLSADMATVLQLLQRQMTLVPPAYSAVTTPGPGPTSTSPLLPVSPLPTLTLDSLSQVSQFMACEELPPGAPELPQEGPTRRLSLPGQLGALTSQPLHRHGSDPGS
In series [12] the test system is Mus musculus. Put plainly: Inhibition of JAK2 in mouse pharamcodynamic model assessed as reduction in STAT5 phosphorylation at 5 mg/kg, po measured after 8 hrs. Format: functional.
The subject of series [13] is Mus musculus. Put plainly: Inhibition of JAK2 in mouse pharamcodynamic model assessed as reduction in STAT5 phosphorylation at 30 mg/kg, po after 18 hrs. Format: functional, organism-based.
A short description of series [14]: Half in dog liver microsomes. Format: ADME, Canis lupus familiaris.
The next series has as its system Rattus norvegicus. Put plainly: Reduction in red blood cell mass in rat at 15 mg/kg/day for 2 weeks. It counts as functional, organism-based.
A short description of series [15]: Volume of distribution at steady state in dog at 0.2 mg/kg, iv and 0.2 mg/kg, po. It counts as ADME, organism-based, Canis lupus familiaris. The note with it: in vivo, read-out: Vdss.
For series [16], the system named is BaF3. Put plainly: Antiproliferative activity against IL3-stimulated mouse BAF3 cells incubated for 72 hrs by [3H] thymidine incorporation assay. Format: functional, cell-based.
The nature of series [17]: Oral bioavailability in rat at 1 mg/kg. Format: ADME, organism-based. The note with it: in vivo.
For a further series, the system named is MDA-MB-231. Put plainly: Antiproliferative activity against human MDA-MB-231 cells incubated for 72 hrs by [3H] thymidine incorporation assay. It counts as functional, cell-based.
A short description of series [18]: Oral bioavailability in dog at 0.2 mg/kg. It counts as ADME, organism-based, Canis lupus familiaris. The note with it: in vivo.
For series [19], the target named is Tyrosine-protein kinase JAK1 (Homo sapiens, UniProt P23458). Put plainly: Inhibition of recombinant JAK1 (unknown origin) using 5-FAM-KKKKEEIYFFFG-OH substrate and ATP incubated for 180 mins by […] method.
Tyrosine-protein kinase JAK1, sequence (P23458 whole entry): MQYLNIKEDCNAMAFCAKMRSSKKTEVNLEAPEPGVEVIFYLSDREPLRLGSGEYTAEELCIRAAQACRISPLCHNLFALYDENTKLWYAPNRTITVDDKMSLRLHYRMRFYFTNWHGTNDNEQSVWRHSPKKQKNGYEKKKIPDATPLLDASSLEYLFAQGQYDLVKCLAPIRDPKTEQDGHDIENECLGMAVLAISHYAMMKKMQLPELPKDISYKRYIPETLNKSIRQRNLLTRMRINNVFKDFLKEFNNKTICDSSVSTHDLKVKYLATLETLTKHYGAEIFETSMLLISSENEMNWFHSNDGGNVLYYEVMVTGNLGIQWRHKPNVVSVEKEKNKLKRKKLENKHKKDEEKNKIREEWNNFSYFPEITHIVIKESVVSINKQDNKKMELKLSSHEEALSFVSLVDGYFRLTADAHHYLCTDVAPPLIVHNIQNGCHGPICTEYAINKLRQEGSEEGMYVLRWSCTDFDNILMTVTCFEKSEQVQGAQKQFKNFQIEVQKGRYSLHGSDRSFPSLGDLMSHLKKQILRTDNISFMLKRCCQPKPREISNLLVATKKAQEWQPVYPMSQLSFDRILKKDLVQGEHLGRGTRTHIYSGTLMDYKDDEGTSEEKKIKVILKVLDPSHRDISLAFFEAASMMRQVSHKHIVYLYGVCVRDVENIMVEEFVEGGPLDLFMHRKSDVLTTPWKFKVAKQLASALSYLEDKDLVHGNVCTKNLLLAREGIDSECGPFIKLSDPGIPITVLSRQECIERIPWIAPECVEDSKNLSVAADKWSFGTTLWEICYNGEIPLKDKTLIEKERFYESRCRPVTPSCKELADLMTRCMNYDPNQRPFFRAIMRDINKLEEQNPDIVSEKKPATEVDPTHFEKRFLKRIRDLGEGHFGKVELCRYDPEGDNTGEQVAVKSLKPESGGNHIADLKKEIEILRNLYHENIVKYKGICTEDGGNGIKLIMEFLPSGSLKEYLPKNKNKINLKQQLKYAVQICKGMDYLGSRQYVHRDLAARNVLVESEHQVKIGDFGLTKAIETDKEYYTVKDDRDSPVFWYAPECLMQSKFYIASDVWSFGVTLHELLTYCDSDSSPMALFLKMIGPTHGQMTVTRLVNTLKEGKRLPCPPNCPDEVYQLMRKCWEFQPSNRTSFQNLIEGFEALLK

Structures are written as SMILES. Calls of active or inactive are those of the source. No cut-off for these calls is given here.

A word on the inhibition: it is the share of the control response that was lost under treatment. As a reminder, the half-life is the time in which the quantity being followed falls by half. The term bioavailability denotes dose-corrected exposure relative to a reference, in per cent. As usually defined, the IC50 is the concentration that gives 50% inhibition. Broadly, the AUC is concentration integrated over time. By Kd is commonly meant the equilibrium constant for the complex coming apart. As usually defined, the inhibition in vivo is the share of the control response that was lost under treatment.

Tyrosine-protein kinase JAK2, sequence (O60674 whole entry): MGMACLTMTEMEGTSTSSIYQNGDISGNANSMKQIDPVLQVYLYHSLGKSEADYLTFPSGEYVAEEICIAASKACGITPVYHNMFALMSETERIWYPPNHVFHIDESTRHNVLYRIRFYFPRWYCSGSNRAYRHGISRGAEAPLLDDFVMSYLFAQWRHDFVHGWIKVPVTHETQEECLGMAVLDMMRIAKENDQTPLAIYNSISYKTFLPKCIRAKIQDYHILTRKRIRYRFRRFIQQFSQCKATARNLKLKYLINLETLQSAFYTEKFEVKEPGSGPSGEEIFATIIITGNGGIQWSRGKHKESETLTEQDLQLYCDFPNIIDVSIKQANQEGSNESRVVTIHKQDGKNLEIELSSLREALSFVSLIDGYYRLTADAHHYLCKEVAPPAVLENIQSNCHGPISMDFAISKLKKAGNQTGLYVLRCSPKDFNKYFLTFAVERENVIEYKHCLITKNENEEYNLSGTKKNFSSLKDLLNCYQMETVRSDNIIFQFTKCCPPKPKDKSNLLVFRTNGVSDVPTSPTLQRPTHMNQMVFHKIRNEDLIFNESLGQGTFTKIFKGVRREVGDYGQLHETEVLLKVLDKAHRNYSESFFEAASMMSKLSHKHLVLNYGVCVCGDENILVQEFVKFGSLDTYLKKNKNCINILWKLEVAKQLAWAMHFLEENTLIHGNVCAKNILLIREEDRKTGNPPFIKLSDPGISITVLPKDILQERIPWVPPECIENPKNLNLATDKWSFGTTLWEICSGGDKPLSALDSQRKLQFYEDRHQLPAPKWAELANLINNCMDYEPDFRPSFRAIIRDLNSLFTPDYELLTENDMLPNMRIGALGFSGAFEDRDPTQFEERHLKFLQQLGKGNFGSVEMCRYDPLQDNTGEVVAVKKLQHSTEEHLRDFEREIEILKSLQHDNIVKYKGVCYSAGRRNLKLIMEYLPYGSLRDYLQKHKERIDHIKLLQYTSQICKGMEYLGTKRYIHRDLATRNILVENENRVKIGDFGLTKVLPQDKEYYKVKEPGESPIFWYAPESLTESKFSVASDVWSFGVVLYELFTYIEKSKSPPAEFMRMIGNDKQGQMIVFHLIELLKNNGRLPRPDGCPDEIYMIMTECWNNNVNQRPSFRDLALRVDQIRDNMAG

For `CCn1c(C(=O)N(C2CC2)C2CC2)cc2c3c(ncn3C)c(Nc3cc(C)n(C)n3)nc21` [BMS-911543], the inhibition in the series filed under Homo sapiens was < 10%. In addition, the half-life in series [1] is 1.8 h; in series [3], 2.4 h; in [4] it was 1.15 h; in [14], 1.17 h. Further, the bioavailability in series [2] was determined as 53%; in series [17] it was 100%; in series [18], 82%. Besides, the half-maximal inhibitory concentration (IC50) against Phosphodiesterase 4 amounted to 5.6 µM; in series [8], 0.08 µM; in series [9], 0.36 µM; in series [10] it was 0.06 µM; in the series on BaF3 [11], 0.07 µM; in the series on BaF3 [16], 3.5 µM. The IC50 in [19] stood at 0.075 µM. Moreover, in series [5], the Activity entry is reported as “Non-toxic”. The compound also gave an AUC with Mus musculus [6] of 41 µM·h. Besides, in [7], the Kd worked out at 0.36 µM. Also, at 30 µM the inhibition against hERG was 20%. The inhibition in vivo at 5 mg/kg with Mus musculus [12] turned out to be 50%. Also, in the series with Mus musculus [13], the inhibition result was “Active”. Further, the result with Rattus norvegicus was Active. Further, in series [15], the Vd turned out to be 1.6 L/kg. In the series with MDA-MB-231, the outcome was inactive.
